Measured values published in publication doi:10.1101/252379v1 (biorxiv, 2018).

Legend:
Sir2La [1] = molecular target: T1, Sir2La (Lactobacillus acidophilus, UniProt Q5FMQ6); assay: fluorogenic deacylase assay; type: biochemical; details: read-out: % residual activity at 50 μM
T1 sequence (Q5FMQ6 1-239): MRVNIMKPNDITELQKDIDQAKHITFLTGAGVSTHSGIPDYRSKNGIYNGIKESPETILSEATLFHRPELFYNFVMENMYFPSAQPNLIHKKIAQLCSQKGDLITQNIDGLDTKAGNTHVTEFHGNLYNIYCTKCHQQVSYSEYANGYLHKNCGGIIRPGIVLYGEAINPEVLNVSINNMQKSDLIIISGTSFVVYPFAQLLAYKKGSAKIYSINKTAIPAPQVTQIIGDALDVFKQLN

Sir2La [2] = molecular target: T1, Sir2La; assay: biochemical; details: 6 IC50 (µM), continuous, continuous assay
Sir2La [3] = molecular target: T1, Sir2La; assay: end-point fluorogenic deacylase assay; type: biochemical

Work on CNC(=S)NCCCC[C@H](NC(=O)OCc1ccccc1)C(=O)N[C@@H](Cc1c[nH]c2ccccc12)C(=O)NC(C)C [compound 7, thiourea 7] yielded a remaining activity at 50 µM (Sir2La [1]) of 77%.
With CC(=S)NCCCC[C@H](NC(=O)OCc1ccccc1)C(=O)N[C@@H](Cc1c[nH]c2ccccc12)C(=O)NC(C)C [compound 6, thioacetamide 6] the IC50 (Sir2La [2]; Ac-LGKac-AMC (2b)) was 5.8 ± 0.1 µM, the IC50 (Sir2La [2]; Ac-LGKpro-AMC (2c)) was 12 µM and the IC50 (Sir2La [3]) was 15 ± 2 µM.
For NC(=O)c1cccnc1 [nicotinamide], the IC50 (Sir2La [3]) was 350 ± 70 µM.
Cc1ccc(C(=O)Nc2ccc(S(=O)(=O)O)c3cc(S(=O)(=O)O)cc(S(=O)(=O)O)c23)cc1NC(=O)c1cccc(NC(=O)Nc2cccc(C(=O)Nc3cc(C(=O)Nc4ccc(S(=O)(=O)O)c5cc(S(=O)(=O)O)cc(S(=O)(=O)O)c45)ccc3C)c2)c1 [suramin] was tested, and the IC50 (Sir2La [3]) was 100 ± 30 µM.
